Data published in the supplement of paper PMC11451515.

Test system: P12-Ichikawa
Assay: cell viability relative to DMSO control; higher = less cytotoxic
Conditions: 48 h
In short: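 Cells were incubated for 48 h at 37°C before CellTiter-Glo One luminescence was read. The cells were NOMO1 or SEM (500 cells/well) or P12-Ichikawa (1000 cells/well) leukemia cells, adapted for at least four passages in each medium and seeded in 1536-well plates (5 μl). Dosing used library compounds in DMSO applied by pin over 11 threefold points, 47 μM to 0.79 nM. Viability is the per-plate percentage of DMSO wells, with cell-free wells as background.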

[1] = HPLM + 10% dialyzed FBS, 0.000781 µM
[2] = HPLM + 10% dialyzed FBS, 0.00234 µM
[3] = HPLM + 10% dialyzed FBS, 0.00702 µM
[4] = HPLM + 10% dialyzed FBS, 0.0211 µM
[5] = HPLM + 10% dialyzed FBS, 0.0632 µM
[6] = HPLM + 10% dialyzed FBS, 0.19 µM
[7] = HPLM + 10% dialyzed FBS, 0.569 µM
[8] = HPLM + 10% dialyzed FBS, 1.71 µM
[9] = HPLM + 10% dialyzed FBS, 5.12 µM
[10] = HPLM + 10% dialyzed FBS, 15.4 µM
[11] = HPLM + 10% dialyzed FBS, 46.1 µM
[12] = RPMI 5 mM glucose + 10% FBS, 0.000781 µM
[13] = RPMI 5 mM glucose + 10% FBS, 0.00234 µM
[14] = RPMI 5 mM glucose + 10% FBS, 0.00702 µM
[15] = RPMI 5 mM glucose + 10% FBS, 0.0211 µM
[16] = RPMI 5 mM glucose + 10% FBS, 0.0632 µM
[17] = RPMI 5 mM glucose + 10% FBS, 0.19 µM
[18] = RPMI 5 mM glucose + 10% FBS, 0.569 µM
[19] = RPMI 5 mM glucose + 10% FBS, 1.71 µM
[20] = RPMI 5 mM glucose + 10% FBS, 5.12 µM
[21] = RPMI 5 mM glucose + 10% FBS, 15.4 µM
[22] = RPMI 5 mM glucose + 10% FBS, 46.1 µM
[23] = RPMI 5 mM glucose + 10% dialyzed FBS, 0.000781 µM
[24] = RPMI 5 mM glucose + 10% dialyzed FBS, 0.00234 µM
[25] = RPMI 5 mM glucose + 10% dialyzed FBS, 0.00702 µM
[26] = RPMI 5 mM glucose + 10% dialyzed FBS, 0.0211 µM
[27] = RPMI 5 mM glucose + 10% dialyzed FBS, 0.0632 µM
[28] = RPMI 5 mM glucose + 10% dialyzed FBS, 0.19 µM
[29] = RPMI 5 mM glucose + 10% dialyzed FBS, 0.569 µM
[30] = RPMI 5 mM glucose + 10% dialyzed FBS, 1.71 µM
[31] = RPMI 5 mM glucose + 10% dialyzed FBS, 5.12 µM
[32] = RPMI 5 mM glucose + 10% dialyzed FBS, 15.4 µM
[33] = RPMI 5 mM glucose + 10% dialyzed FBS, 46.1 µM

Compound	cell viability [1] [%]	cell viability [2] [%]	cell viability [3] [%]	cell viability [4] [%]	cell viability [5] [%]	cell viability [6] [%]	cell viability [7] [%]	cell viability [8] [%]	cell viability [9] [%]	cell viability [10] [%]	cell viability [11] [%]	cell viability [12] [%]	cell viability [13] [%]	cell viability [14] [%]	cell viability [15] [%]	cell viability [16] [%]	cell viability [17] [%]	cell viability [18] [%]	cell viability [19] [%]	cell viability [20] [%]	cell viability [21] [%]	cell viability [22] [%]	cell viability [23] [%]	cell viability [24] [%]	cell viability [25] [%]	cell viability [26] [%]	cell viability [27] [%]	cell viability [28] [%]	cell viability [29] [%]	cell viability [30] [%]	cell viability [31] [%]	cell viability [32] [%]	cell viability [33] [%]
c1cc(OCCN2CCCCC2)cc(-c2n[nH]c3ccc(-c4nc[nH]n4)cc23)c1	109	114	110	116	117	118	121	116	122	123	124	112	111	118	116	123	114	114	132	128	128	111	99.4	111	114	19.2	117	116	121	115	108	123	116
CCCCc1oc2ccc(NS(C)(=O)=O)cc2c1C(=O)c1ccc(OCCCN(CCCC)CCCC)cc1	98.3	99	117	108	107	108	110	111	106	12.1	15	96	117	113	115	118	111	112	105	98.1	15.5	12.7	93.3	99.9	102	109	108	110	104	109	95.7	20.9	10.3
COc1cc2ncnc(Nc3ccc(F)c(Cl)c3)c2cc1OCCCN1CCOCC1	115	114	120	115	112	113	117	111	100	95.4	4.05	122	113	109	109	112	109	114	106	104	111	93.7	111	116	116	115	113	109	111	112	106	101	86.6
CC1(C)O[C@H]2CC(=O)OC[C@]23[C@H]2CC[C@@]4(C)[C@H](c5ccoc5)OC(=O)[C@H]5O[C@]54[C@]2(C)C(=O)C[C@@H]13	95.9	107	101	105	110	110	115	102	115	99.5	110	88.3	102	102	93.8	98.4	107	106	95.6	107	105	112	90.8	96.2	104	97.6	105	95.2	101	100	96.1	98.2	96.7
O=C(c1ccc(F)cc1)C1CCN(CCn2c(=O)[nH]c3ccccc3c2=O)CC1																							121	125	118	120	118	121	140	110	116	112	102
CN[C@@H](C)C(=O)N[C@H]1CCCC[C@H]2CC[C@@H](C(=O)N[C@@H](c3ccccc3)c3cn(CCCCc4ccc(CCCCn5cc([C@@H](NC(=O)[C@@H]6CC[C@@H]7CCCC[C@H](NC(=O)[C@H](C)NC)C(=O)N76)c6ccccc6)nn5)cc4)nn3)N2C1=O	103	101	99.3	95.4	102	99.8	94.8	104	96.3	96.8	94.7	98.6	104	92	106	92.8	99.7	115	97.9	96.2	97.1	79.9	90.8	110	94.7	84.7	93	101	97.3	98	92.1	93.5	72.9
O=C1c2cccc(O)c2C(=O)c2c(O)cc(CO)cc21	97.1	100	99.9	98.1	92.7	91.2	95.2	92.8	91.9	90.7	93.4	89.6	90.1	93.7	98	92.3	97	88.2	97.1	92.1	96.5	104	91.1	92.2	91	93.4	91.8	91.5	89	86.7	88	88.3	91.3
Clc1ccc(COC(Cn2ccnc2)c2ccc(Cl)cc2Cl)cc1 (stereo not drawn)	110	109	115	117	124	121	120	117	114	116	106	116	117	114	126	129	123	121	130	126	104	91.3	108	114	123	113	124	124	120	107	103	96.8	85.7
C[C@@H]1CN(CC(=O)N2CC(C)(C)c3ncc(Cc4ccc(F)cc4)cc32)[C@@H](CN2CCOC[C@H]2C)CN1	102	113	81.8	113	118	121	111	112	115	110	91.8	102	106	69.7	118	118	132	114	128	125	116	98.2	110	119	88.8	125	126	135	128	122	121	118	90.8
c1ccc2c(-c3cnn4cc(-c5ccc(N6CCNCC6)cc5)cnc34)ccnc2c1	97.9	103	150	144	151	141	146	126	125	121	59.3	88.7	91.2	161	182	191	166	142	123	111	107	2.89	96	96.6	175	169	168	164	168	138	119	120	3.35
N/C(=N\C(=O)c1nc(Cl)c(N)nc1N)NCc1ccccc1	101	106	105	103	108	105	108	108	101	98.7	70.9	84.9	96.9	83.3	92.1	99	103	106	95.1	107	96.5	58.4	82.5	94.1	94.1	88.2	94.4	101	103	106	98.2	76.1	51.4
CN1C(=O)COc2c(C(=O)NC3CN4CCC3CC4)cc(Cl)cc21 (stereo not drawn)	87.1	107	104	105	109	109	99.6	96.9	94.2	107	111	95	115	110	119	132	73	66.4	86.1	95.7	95.6	121	95.8	98.4	101	97.8	101	95.4	98.9	96.9	92.6	89.2	99
Cc1cnc(Nc2ccc(OCCN3CCCC3)cc2)nc1Nc1cccc([S+](=O)([O-])NC(C)(C)C)c1	100	108	110	110	115	111	119	114	112	108	112	110	116	110	119	120	116	120	117	110	108	112	91.8	101	109	106	117	109	111	118	110	110	97.6
CC1(C)OC/2=C(\[C@H](NCC3=CC=CC=C3)[C@@H]1O)C(=O)C4=CC=CC=C4C2=O	102	106	107	104	106	108	102	94	96.4	47.8	6.77	100	102	102	115	96.4	99.8	98.8	88.3	71.8	18.7	6.26	98.5	94.9	95.1	101	101	101	101	96.7	75.8	54.6	5.89
Cn1c(=O)c2c(ncn2CC(O)CO)n(C)c1=O (stereo not drawn)	113	112	110	111	114	116	115	111	108	117	124	109	104	118	119	124	122	127	117	128	134	128	112	114	114	116	114	115	124	117	125	126	119
